Source: ChEMBL document CHEMBL1126299, “Synthesis and structure-activity relationships of cephalosporins with C-3' catechol-containing residues” (J Med Chem, 1992)
≈ marks a conversion by molar mass, not a printed value.

system: Staphylococcus aureus; test: microbe, parasite or virus in culture
Description: The compound was tested for minimum inhibitory concentration in Staphylococcus aureus,147N penicillin sensitive Staphylococcus aureus

Compound	MIC [µg/mL]
CC(C)(O/N=C(/C(=O)N[C@@H]1C(=O)N2C(C(=O)O)=C(COC(=O)c3ccc(O)c(O)c3)CSC12)c1csc(N)n1)C(=O)O (some centres undefined)	8 (≈ 12.9 µM)
CCO/N=C(\C(=O)N[C@@H]1C(=O)N2C(C(=O)O)=C(CNC(=O)c3ccc(O)c(O)c3)CSC12)c1csc(N)n1 (some centres undefined)	4 (≈ 7.11 µM)

system: Pseudomonas aeruginosa; test: microbe, parasite or virus in culture
Description: Minimum inhibitory concentration in Pseudomonas aeruginosa,799/61 permeability mutant

Compound	MIC [µg/mL]
CC(C)(O/N=C(/C(=O)N[C@@H]1C(=O)N2C(C(=O)O)=C(COC(=O)c3ccc(O)c(O)c3)CSC12)c1csc(N)n1)C(=O)O (some centres undefined)	0.008 (≈ 0.0129 µM)
CCO/N=C(\C(=O)N[C@@H]1C(=O)N2C(C(=O)O)=C(CNC(=O)c3ccc(O)c(O)c3)CSC12)c1csc(N)n1 (some centres undefined)	0.015 (≈ 0.0267 µM)

system: Enterobacter cloacae; test: microbe, parasite or virus in culture
Description: Minimum inhibitory concentration in Enterobacter cloacae, P99+ constitutive depressed type 1 lactamase producer

Compound	MIC [µg/mL]
CC(C)(O/N=C(/C(=O)N[C@@H]1C(=O)N2C(C(=O)O)=C(COC(=O)c3ccc(O)c(O)c3)CSC12)c1csc(N)n1)C(=O)O (some centres undefined)	4 (≈ 6.43 µM)
CCO/N=C(\C(=O)N[C@@H]1C(=O)N2C(C(=O)O)=C(CNC(=O)c3ccc(O)c(O)c3)CSC12)c1csc(N)n1 (some centres undefined)	64 (≈ 114 µM)

system: Staphylococcus aureus; test: microbe, parasite or virus in culture; remark: another data set of the same source
Description: The compound was tested for minimum inhibitory concentration in Staphylococcus aureus Oxford penicillin sensitive Staphylococcus aureus

Compound	MIC [µg/mL]
CC(C)(O/N=C(/C(=O)N[C@@H]1C(=O)N2C(C(=O)O)=C(COC(=O)c3ccc(O)c(O)c3)CSC12)c1csc(N)n1)C(=O)O (some centres undefined)	4 (≈ 6.43 µM)
CCO/N=C(\C(=O)N[C@@H]1C(=O)N2C(C(=O)O)=C(CNC(=O)c3ccc(O)c(O)c3)CSC12)c1csc(N)n1 (some centres undefined)	2 (≈ 3.56 µM)

system: Enterobacter cloacae; test: microbe, parasite or virus in culture; remark: another data set of the same source
Description: Minimum inhibitory concentration in Enterobacter cloacae, I+401029 inducible type 1 lactamase producer

Compound	MIC [µg/mL]
CC(C)(O/N=C(/C(=O)N[C@@H]1C(=O)N2C(C(=O)O)=C(COC(=O)c3ccc(O)c(O)c3)CSC12)c1csc(N)n1)C(=O)O (some centres undefined)	0.06 (≈ 0.0965 µM)
CCO/N=C(\C(=O)N[C@@H]1C(=O)N2C(C(=O)O)=C(CNC(=O)c3ccc(O)c(O)c3)CSC12)c1csc(N)n1 (some centres undefined)	0.25 (≈ 0.444 µM)

system: Citrobacter freundii; test: microbe, parasite or virus in culture
Description: Minimum inhibitory concentration in Citrobacter freundii, I+382010 inducible type 1 lactamase producer

Compound	MIC [µg/mL]
CC(C)(O/N=C(/C(=O)N[C@@H]1C(=O)N2C(C(=O)O)=C(COC(=O)c3ccc(O)c(O)c3)CSC12)c1csc(N)n1)C(=O)O (some centres undefined)	0.03 (≈ 0.0483 µM)
CCO/N=C(\C(=O)N[C@@H]1C(=O)N2C(C(=O)O)=C(CNC(=O)c3ccc(O)c(O)c3)CSC12)c1csc(N)n1 (some centres undefined)	0.06 (≈ 0.107 µM)

system: Pseudomonas aeruginosa; test: microbe, parasite or virus in culture; remark: another data set of the same source
Description: In vitro minimum inhibitory concentration against Pseudomonas aeruginosa (PU21).

Compound	MIC [µg/mL]
CC(C)(O/N=C(/C(=O)N[C@@H]1C(=O)N2C(C(=O)O)=C(COC(=O)c3ccc(O)c(O)c3)CSC12)c1csc(N)n1)C(=O)O (some centres undefined)	0.3 (≈ 0.483 µM)
CCO/N=C(\C(=O)N[C@@H]1C(=O)N2C(C(=O)O)=C(CNC(=O)c3ccc(O)c(O)c3)CSC12)c1csc(N)n1 (some centres undefined)	0.25 (≈ 0.444 µM)

system: Pseudomonas aeruginosa; test: microbe, parasite or virus in culture; remark: another data set of the same source
Description: Minimum inhibitory concentration in Pseudomonas aeruginosa,799WT parent organism

Compound	MIC [µg/mL]
CC(C)(O/N=C(/C(=O)N[C@@H]1C(=O)N2C(C(=O)O)=C(COC(=O)c3ccc(O)c(O)c3)CSC12)c1csc(N)n1)C(=O)O (some centres undefined)	0.008 (≈ 0.0129 µM)
CCO/N=C(\C(=O)N[C@@H]1C(=O)N2C(C(=O)O)=C(CNC(=O)c3ccc(O)c(O)c3)CSC12)c1csc(N)n1 (some centres undefined)	0.06 (≈ 0.107 µM)

system: Providencia stuartii; test: microbe, parasite or virus in culture
Description: Minimum inhibitory concentration in Pseudomonas stuartii, DR 442049 constitutive depressed type 1 lactamase producer

Compound	MIC [µg/mL]
CC(C)(O/N=C(/C(=O)N[C@@H]1C(=O)N2C(C(=O)O)=C(COC(=O)c3ccc(O)c(O)c3)CSC12)c1csc(N)n1)C(=O)O (some centres undefined)	4 (≈ 6.43 µM)
CCO/N=C(\C(=O)N[C@@H]1C(=O)N2C(C(=O)O)=C(CNC(=O)c3ccc(O)c(O)c3)CSC12)c1csc(N)n1 (some centres undefined)	1 (≈ 1.78 µM)

system: Citrobacter freundii; test: microbe, parasite or virus in culture; remark: another data set of the same source
Description: Minimum inhibitory concentration in Citrobacter freundii, DR 382031 constitutive depressed type 1

Compound	MIC [µg/mL]
CC(C)(O/N=C(/C(=O)N[C@@H]1C(=O)N2C(C(=O)O)=C(COC(=O)c3ccc(O)c(O)c3)CSC12)c1csc(N)n1)C(=O)O (some centres undefined)	8 (≈ 12.9 µM)
CCO/N=C(\C(=O)N[C@@H]1C(=O)N2C(C(=O)O)=C(CNC(=O)c3ccc(O)c(O)c3)CSC12)c1csc(N)n1 (some centres undefined)	> 128

system: Escherichia coli; test: microbe, parasite or virus in culture
Description: In vitro minimum inhibitory concentration against Escherichia coli (DC2 permeability mutant).

Compound	MIC [µg/mL]
CC(C)(O/N=C(/C(=O)N[C@@H]1C(=O)N2C(C(=O)O)=C(COC(=O)c3ccc(O)c(O)c3)CSC12)c1csc(N)n1)C(=O)O (some centres undefined)	0.008 (≈ 0.0129 µM)
CCO/N=C(\C(=O)N[C@@H]1C(=O)N2C(C(=O)O)=C(CNC(=O)c3ccc(O)c(O)c3)CSC12)c1csc(N)n1 (some centres undefined)	0.008 (≈ 0.0142 µM)

system: Escherichia coli; test: microbe, parasite or virus in culture; remark: another data set of the same source
Description: In vitro minimum inhibitory concentration against Escherichia coli (DC0 parent organism).

Compound	MIC [µg/mL]
CC(C)(O/N=C(/C(=O)N[C@@H]1C(=O)N2C(C(=O)O)=C(COC(=O)c3ccc(O)c(O)c3)CSC12)c1csc(N)n1)C(=O)O (some centres undefined)	0.008 (≈ 0.0129 µM)
CCO/N=C(\C(=O)N[C@@H]1C(=O)N2C(C(=O)O)=C(CNC(=O)c3ccc(O)c(O)c3)CSC12)c1csc(N)n1 (some centres undefined)	0.06 (≈ 0.107 µM)

system: Pseudomonas aeruginosa; test: microbe, parasite or virus in culture; remark: another data set of the same source
Description: Minimum inhibitory concentration in Pseudomonas aeruginosa, 18S inducible type 1 lactamase producer

Compound	MIC [µg/mL]
CC(C)(O/N=C(/C(=O)N[C@@H]1C(=O)N2C(C(=O)O)=C(COC(=O)c3ccc(O)c(O)c3)CSC12)c1csc(N)n1)C(=O)O (some centres undefined)	0.008 (≈ 0.0129 µM)
CCO/N=C(\C(=O)N[C@@H]1C(=O)N2C(C(=O)O)=C(CNC(=O)c3ccc(O)c(O)c3)CSC12)c1csc(N)n1 (some centres undefined)	0.03 (≈ 0.0533 µM)

system: Pseudomonas aeruginosa; test: microbe, parasite or virus in culture; remark: another data set of the same source
Description: Minimum inhibitory concentration in Pseudomonas aeruginosa, 18SH constitutive depressed type 1 lactamase producer

Compound	MIC [µg/mL]
CC(C)(O/N=C(/C(=O)N[C@@H]1C(=O)N2C(C(=O)O)=C(COC(=O)c3ccc(O)c(O)c3)CSC12)c1csc(N)n1)C(=O)O (some centres undefined)	0.125 (≈ 0.201 µM)
CCO/N=C(\C(=O)N[C@@H]1C(=O)N2C(C(=O)O)=C(CNC(=O)c3ccc(O)c(O)c3)CSC12)c1csc(N)n1 (some centres undefined)	64 (≈ 114 µM)

system: Enterobacter cloacae; test: microbe, parasite or virus in culture; remark: another data set of the same source
Description: Minimum inhibitory concentration in Enterobacter cloacae, DR 401108 constitutive depressed type 1 lactamase producer

Compound	MIC [µg/mL]
CC(C)(O/N=C(/C(=O)N[C@@H]1C(=O)N2C(C(=O)O)=C(COC(=O)c3ccc(O)c(O)c3)CSC12)c1csc(N)n1)C(=O)O (some centres undefined)	> 128
CCO/N=C(\C(=O)N[C@@H]1C(=O)N2C(C(=O)O)=C(CNC(=O)c3ccc(O)c(O)c3)CSC12)c1csc(N)n1 (some centres undefined)	128 (≈ 228 µM)

system: Providencia stuartii; test: microbe, parasite or virus in culture; remark: another data set of the same source
Description: Minimum inhibitory concentration in Pseudomonas stuartii, I+442019 inducible type 1 lactamase producer

Compound	MIC [µg/mL]
CC(C)(O/N=C(/C(=O)N[C@@H]1C(=O)N2C(C(=O)O)=C(COC(=O)c3ccc(O)c(O)c3)CSC12)c1csc(N)n1)C(=O)O (some centres undefined)	0.125 (≈ 0.201 µM)
CCO/N=C(\C(=O)N[C@@H]1C(=O)N2C(C(=O)O)=C(CNC(=O)c3ccc(O)c(O)c3)CSC12)c1csc(N)n1 (some centres undefined)	0.5 (≈ 0.889 µM)

system: Enterobacter cloacae; test: microbe, parasite or virus in culture; remark: another data set of the same source
Description: Minimum inhibitory concentration in Enterobacter cloacae, P99- inducible type 1 lactamase producer

Compound	MIC [µg/mL]
CC(C)(O/N=C(/C(=O)N[C@@H]1C(=O)N2C(C(=O)O)=C(COC(=O)c3ccc(O)c(O)c3)CSC12)c1csc(N)n1)C(=O)O (some centres undefined)	0.5 (≈ 0.804 µM)
CCO/N=C(\C(=O)N[C@@H]1C(=O)N2C(C(=O)O)=C(CNC(=O)c3ccc(O)c(O)c3)CSC12)c1csc(N)n1 (some centres undefined)	0.5 (≈ 0.889 µM)
